Source: ChEMBL document CHEMBL1201862, “PubChem BioAssay data set” (2004)
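Following 48 hours of exposure in 96-well plates, responses at five concentrations were used to interpolate endpoints linearly. The concentration for 50% growth inhibition is given as GI50.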 The source made the active and inactive calls. No stated cut-off is given here; in the data, active = GI50 up to about 1.1 µM and inactive = higher.

Legend:
Experiment in all cases: NCI-60 cell line screen, 48 h
A498 = system: A498
A549 = system: A549
ACHN = system: ACHN
HCC 2998 = system: HCC 2998
HCT-15 = system: HCT-15
KM12 = system: KM12
LOX IMVI = system: LOX IMVI
MDA-MB-231 = system: MDA-MB-231
Malme-3M = system: Malme-3M
NCI-H226 = system: NCI-H226
NCI-H23 = system: NCI-H23
NCI/ADR-RES = system: NCI/ADR-RES
OVCAR-3 = system: OVCAR-3
PC-3 = system: PC-3
SN12C = system: SN12C
SW-620 = system: SW-620
UO-31 = system: UO-31
SF-268 = system: SF-268
RPMI-8226 = system: RPMI-8226
SK-OV-3 = system: SK-OV-3

Question: Which GI50 (A498) does the source give for O=C1c2ccccc2C(=O)N1n1c(Cc2ccc(Cl)cc2)n[nH]c1=O here?
Answer: > 100 µM (inactive)

Question: What about the GI50 (A549) of the same compound?
Answer: > 100 µM (inactive)

Question: And the GI50 (ACHN)?
Answer: > 100 µM (inactive)

Question: And the GI50 (HCC 2998)?
Answer: > 100 µM (inactive)

Question: And the GI50 (HCT-15)?
Answer: > 100 µM

Question: And the GI50 (KM12)?
Answer: > 100 µM (inactive)

Question: And the GI50 (LOX IMVI)?
Answer: > 100 µM (inactive)

Question: What about the GI50 (MDA-MB-231) of the same compound?
Answer: > 100 µM (inactive)

Question: What about the GI50 (Malme-3M) of the same compound?
Answer: > 100 µM (inactive)

Question: And the GI50 (NCI-H226)?
Answer: > 100 µM (inactive)

Question: And the GI50 (NCI-H23)?
Answer: > 100 µM (inactive)

Question: What about the GI50 (NCI/ADR-RES) of the same compound?
Answer: > 100 µM (inactive)

Question: What about the GI50 (OVCAR-3) of the same compound?
Answer: > 100 µM (inactive)

Question: What about the GI50 (PC-3) of the same compound?
Answer: > 100 µM (inactive)

Question: What about the GI50 (SN12C) of the same compound?
Answer: > 100 µM (inactive)

Question: And the GI50 (SW-620)?
Answer: > 100 µM (inactive)

Question: And the GI50 (UO-31)?
Answer: > 100 µM (inactive)

Question: Which results are given for O=C(/C=C1/Nc2ccc([N+](=O)[O-])cc2N/C1=C/C(=O)c1ccc(Cl)cc1)c1ccc(Cl)cc1?
Answer: GI50 (A498): 10.1 µM (inactive); GI50 (A549): > 100 µM (inactive); GI50 (ACHN): > 100 µM (inactive); GI50 (HCC 2998): > 100 µM (inactive); GI50 (HCT-15): 24.2 µM; GI50 (KM12): > 100 µM (inactive); GI50 (MDA-MB-231): > 100 µM (inactive); GI50 (Malme-3M): > 100 µM (inactive); GI50 (NCI-H226): > 100 µM (inactive); GI50 (NCI-H23): 11.6 µM (inactive); GI50 (NCI/ADR-RES): 43.2 µM (inactive); GI50 (OVCAR-3): 80.2 µM (inactive); GI50 (PC-3): 41.4 µM (inactive); GI50 (SF-268): 60.5 µM (inactive); GI50 (SN12C): 17.7 µM (inactive); GI50 (UO-31): > 100 µM (inactive)

Question: What does the source list for N#Cc1c(C#N)c(-c2ccccc2)n(-c2ccccc2)c1N?
Answer: GI50 (A498): > 100 µM (inactive); GI50 (A549): > 100 µM (inactive); GI50 (ACHN): 50.7 µM (inactive); GI50 (HCT-15): > 100 µM; GI50 (KM12): > 100 µM (inactive); GI50 (LOX IMVI): > 100 µM (inactive); GI50 (MDA-MB-231): > 100 µM (inactive); GI50 (Malme-3M): > 100 µM (inactive); GI50 (NCI-H226): 72.4 µM (inactive); GI50 (NCI-H23): 80.7 µM (inactive); GI50 (NCI/ADR-RES): > 100 µM (inactive); GI50 (OVCAR-3): > 100 µM (inactive); GI50 (PC-3): > 100 µM (inactive); GI50 (RPMI-8226): 5.87 µM (inactive); GI50 (SF-268): 88.3 µM (inactive); GI50 (SK-OV-3): 83.6 µM (inactive); GI50 (SN12C): > 100 µM (inactive); GI50 (SW-620): > 100 µM (inactive); GI50 (UO-31): 12.8 µM (inactive)

Question: Which results are given for COc1cc(CC2C(=O)OCC2Cc2ccc(OC)c(OC)c2)ccc1O (centres undefined)?
Answer: GI50 (A498): > 100 µM (inactive); GI50 (A549): > 71.8 µM (inactive); GI50 (ACHN): > 88.9 µM (inactive); GI50 (HCT-15): > 100 µM; GI50 (KM12): > 100 µM (inactive); GI50 (LOX IMVI): 30.8 µM (inactive); GI50 (MDA-MB-231): 74.3 µM (inactive); GI50 (Malme-3M): > 100 µM (inactive); GI50 (NCI-H226): > 100 µM (inactive); GI50 (NCI-H23): 10.9 µM (inactive); GI50 (NCI/ADR-RES): 43.6 µM (inactive); GI50 (OVCAR-3): > 91.8 µM (inactive); GI50 (PC-3): 99.1 µM (inactive); GI50 (RPMI-8226): > 100 µM (inactive); GI50 (SF-268): > 100 µM (inactive); GI50 (SK-OV-3): > 100 µM (inactive); GI50 (SN12C): > 100 µM (inactive); GI50 (SW-620): > 100 µM (inactive); GI50 (UO-31): > 100 µM (inactive)

Question: Which GI50 (A498) does the source give for Cn1c(=O)nc2n(CCO)ccnc-2c1=O here?
Answer: > 100 µM (inactive)

Question: And the GI50 (A549)?
Answer: > 100 µM (inactive)

Question: What about the GI50 (ACHN) of the same compound?
Answer: > 100 µM (inactive)

Question: What about the GI50 (HCC 2998) of the same compound?
Answer: > 100 µM (inactive)

Question: What about the GI50 (HCT-15) of the same compound?
Answer: > 100 µM

Question: And the GI50 (KM12)?
Answer: > 100 µM (inactive)

Question: What about the GI50 (LOX IMVI) of the same compound?
Answer: > 100 µM (inactive)

Question: And the GI50 (MDA-MB-231)?
Answer: > 100 µM (inactive)

Question: And the GI50 (Malme-3M)?
Answer: > 100 µM (inactive)

Question: What about the GI50 (NCI-H226) of the same compound?
Answer: > 100 µM (inactive)

Question: What about the GI50 (NCI-H23) of the same compound?
Answer: > 100 µM (inactive)

Question: And the GI50 (NCI/ADR-RES)?
Answer: > 100 µM (inactive)

Question: What about the GI50 (OVCAR-3) of the same compound?
Answer: > 100 µM (inactive)

Question: What about the GI50 (PC-3) of the same compound?
Answer: > 100 µM (inactive)

Question: And the GI50 (RPMI-8226)?
Answer: > 100 µM (inactive)

Question: And the GI50 (SF-268)?
Answer: > 100 µM (inactive)

Question: And the GI50 (SN12C)?
Answer: > 100 µM (inactive)

Question: And the GI50 (SW-620)?
Answer: > 100 µM (inactive)

Question: What about the GI50 (UO-31) of the same compound?
Answer: > 100 µM (inactive)

Question: Which results are given for CCOC(=O)c1[nH]c(Br)c(-c2ccc(OC)c(OC)c2)c1Br?
Answer: GI50 (A498): 0.0187 µM (active); GI50 (A549): 0.287 µM (active); GI50 (ACHN): 0.0242 µM (active); GI50 (HCC 2998): 0.199 µM (active); GI50 (HCT-15): 0.0527 µM; GI50 (KM12): 0.0303 µM (active); GI50 (LOX IMVI): 0.0179 µM (active); GI50 (MDA-MB-231): 0.321 µM (active); GI50 (Malme-3M): 1.71 µM (inactive); GI50 (NCI-H226): 0.0381 µM (active); GI50 (NCI-H23): 0.0891 µM (active); GI50 (NCI/ADR-RES): 0.00434 µM (active); GI50 (OVCAR-3): 0.0163 µM (active); GI50 (PC-3): 0.0356 µM (active); GI50 (RPMI-8226): 0.01 µM (active); GI50 (SF-268): 0.178 µM (active); GI50 (SN12C): 0.117 µM (active); GI50 (SW-620): 0.0302 µM (active); GI50 (UO-31): 0.0676 µM (active)
